What was measured:
[1] = tested on: human gingival fibroblasts (HGFs); assay: MTT cytocompatibility screening on HGFs, 24 h; format: cell-based; conditions: for HGFs metabolic activity / cell viability (MTT): 10 µM, vs control (DMSO) and RSV; for HGFs cell viability (MTT): vs control and RSV
HGFs = assay: Toluidine blue staining, morphology and confluence of HGFs; format: cell-based, human; conditions: 72 h; 1d and 1h 5 µM, RSV 10 µM
Method: The influence of 1d and 1h was evaluated on cells density and morphology by toluidine-blue staining. A total of 2 × 10^4 cells/well were cultured in 24-well plates and were incubated at 37 °C and 5% CO2 with tested compounds at 5 µM. After 48 and 72 h, adherent cells were fixed with 70% cold ethanol and stained with 1% toluidine blue and 1% borax (Sigma Aldrich, St. Louis, MO, USA). Cells were then observed by an inverted microscope connected with a camera at 40×, 100×, and 200× magnifications (Leica, Wild Heer-brugg, Wetzlar, Germany).

eNOS mRNA in HUVECs = assay: RT-qPCR of eNOS in HUVECs; format: cell-based, human; conditions: RSV 10 µM, 48 and 72 h, time-dependent manner
Method: Total RNA was isolated using Trifast reagent (EuroClone) according to the manufacturer instructions from 3 × 10^5 cells/well treated with increasing concentrations of 1d and 1h for 48 h and 72 h. Complementary DNA (cDNA) was obtained using GoTaq® 2 Step RT-qPCR Kit (Promega, Madison, WI, USA) in accordance with the manufacturer’s instructions. RT-qPCR was carried out using SYBR Green (Promega) on the Quant Studio 7 Pro Real-Time PCR System (ThermoFisher, Waltham, MA, USA). The results were normalized to glyceraldehyde 3-phoshate dehydrogenase (GAPDH) for HUVECs and HGFs and to β-actin (βACT) for HOBs using the 2^−ΔΔCt method.

SMILES | HGFs metabolic activity / cell viability (MTT) [1] | HGFs cell viability (MTT) ([1]; 50 µM) | HGFs cell viability (MTT) ([1]; 20 µM) | HGFs morphology (HGFs) | eNOS mRNA expression (eNOS mRNA in HUVECs)
Cc1ccc(S(=O)(=O)Nc2ccc(/C=C/c3ccccc3)cc2)cc1[N+](=O)[O-] [1c] | did not show any significant difference | statistically reduce HGF viability |  |  | 
COc1cc(OC)cc(S(=O)(=O)Nc2ccc(/C=C/c3ccccc3)cc2)c1 [1f] | significantly decreased the HGFs metabolic activity | statistically reduce HGF viability |  |  | 
CS(=O)(=O)Nc1ccc(/C=C/c2ccccc2)cc1 [1g] | significantly decreased the HGFs metabolic activity | statistically reduce HGF viability | statistically significant reduction in cell viability |  | 
O=[N+]([O-])c1cccc(S(=O)(=O)Nc2ccc(/C=C/c3ccccc3)cc2)c1 [1b] | significantly decreased the HGFs metabolic activity | statistically reduce HGF viability |  |  | 
O=S(=O)(Cc1ccccc1)Nc1ccc(/C=C/c2ccccc2)cc1 [1i] | did not show any significant difference | statistically reduce HGF viability | statistically significant reduction in cell viability |  | 
N#Cc1ccc(S(=O)(=O)Nc2ccc(/C=C/c3ccccc3)cc2)cc1 [1e] | significantly decreased the HGFs metabolic activity | statistically reduce HGF viability | statistically significant reduction in cell viability |  | 
Oc1ccc(/C=C/c2cc(O)cc(O)c2)cc1 [RSV, trans-3,5,4′-trihydroxystilbene, reference compound] |  |  |  | appeared as irregular triangles, polygons, and other shapes | induced eNOS mRNA expression
O=S(=O)(Nc1ccc(/C=C/c2ccccc2)cc1)c1ccccc1 [1a] | did not show any significant difference | no statistically significant differences | slight increase in HGF viability |  | 

— paper PMC9963438, “Emerging Effects of Resveratrol Derivatives in Cells Involved in Oral Wound Healing: A Preliminary Study” (International Journal of Molecular Sciences, 2023)
